Results published in patent US5312838A, “β-alanineamide aryl/alkylsulfide/sulfonyl-terminated amino-diol compounds for treatment of hypertension” (G. D. Searle & Co., priority 1992, dated 1994).
Where a SMILES comes first, the peptide text is derived from it. [ ]: non-standard residue; d: D form. The star is where a group is joined. Sta = CC(C)C[C@H](N)[C@@H](O)CC(=O)O; Isovaleryl = CC(C)CC(=O)*

Key:
hog renin = conditions: after injection of hog renin into nephrectomized rats; Gross et al, Science 1971; cited from earlier work
renin = conditions: Umezawa et al, J. Antibiot. 1970; cited from earlier work
pepsin = conditions: Umezawa et al, J. Antibiot. 1970; cited from earlier work
cathepsin D = conditions: Umezawa et al, J. Antibiot. 1970; cited from earlier work
human renin = biological target: T1, human renin (Homo sapiens, UniProt P00797); assay: Human Renin Inhibition in vitro (angiotensin I by radioimmunoassay); format: biochemical; conditions: pH 7.4, 37° C., two hours, human plasma
T1 construct: purchased National Institute for Biological Standards, London
T1 sequence (P00797 67-406): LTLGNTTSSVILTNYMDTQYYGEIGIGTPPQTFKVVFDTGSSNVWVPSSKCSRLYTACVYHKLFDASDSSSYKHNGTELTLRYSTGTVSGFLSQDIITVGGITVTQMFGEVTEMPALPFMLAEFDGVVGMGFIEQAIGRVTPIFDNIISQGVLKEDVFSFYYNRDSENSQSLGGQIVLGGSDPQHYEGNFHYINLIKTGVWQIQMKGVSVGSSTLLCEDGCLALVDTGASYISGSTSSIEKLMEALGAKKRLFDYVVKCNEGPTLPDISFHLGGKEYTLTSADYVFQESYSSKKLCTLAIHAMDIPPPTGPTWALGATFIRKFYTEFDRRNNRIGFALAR
Description: Compounds of Formula I were evaluated as inhibitors of human renin in an in vitro assay, as follows: This human renin inhibition test has been previously described in detail [Papaioannou et al., Clinical and Experimental Hypertension, A7(9), 1243-1257 (1985)]. Human renin was obtained from the National Institute for Biological Standards, London. An incubation mixture was prepared containing the following components: in a total volume of 0.25 mL: 100 mM Tris-acetate buffer at pH 7.4, 25×10^-6 Goldblatt units of renin, 0.05 mL of plasma from human volunteers taking oral contraceptives, 6.0 mM Na-EDTA, 2.4 mM phenylmethyl sulfonyl fluoride, 1.5 mM 8-hydroxyquinoline, 0.4 mg/mL bovine serum albumin (BSA), and 0.024 mg/mL neomycin sulfate. This mixture was incubated for two hours at 37° C. in the presence or absence of renin inhibitors. The produced angiotensin I was determined by radioimmunoassay (New England Nuclear kit). Test compounds to be assayed were dissolved in DMSO and diluted with 100 mM Tris-acetate buffer at pH 7.4 containing 0.5% BSA to the appropriate concentration. The final concentration of organic solvent in the reaction mixture was less than 1%. Control incubations at 37° C. were used to correct for effects of organic solvent on renin activity.

CC(C)CC(=O)N[C@H](C(=O)N[C@H](C(=O)N[C@@H](CC(C)C)[C@@H](O)CC(=O)N[C@@H](C)C(=O)N[C@@H](CC(C)C)[C@@H](O)CC(=O)O)C(C)C)C(C)C [pepstatin] (Isovaleryl-VV[Sta]A[Sta]-OH)
blood pressure in vivo (hog renin): reduce blood pressure | inhibitor of renin (renin): inhibitor | inhibitor of pepsin (pepsin): inhibitor | inhibitor of cathepsin D (cathepsin D): inhibitor

CC(C)C[C@H](O)[C@H](O)[C@H](CC1CCCCC1)NC(=O)C(C)CNC(=O)C(Cc1ccccc1)CS(=O)(=O)C(C)(C)C (stereo partly drawn) [Example 1, N-[3-[[1S,1R*-(cyclohexylmethyl)-2S*,3R*-5-methylhexyl]amino]-2S*-methyl-3-oxopropyl]-α-[[(1,1-dimethylethyl)sulfonyl]methyl]benzenepropanamide]
IC50 (human renin): 10 nM

CC(C)C[C@H](O)[C@H](O)[C@H](CC1CCCCC1)NC(=O)C(C)CNC(=O)C(CSC(C)(C)C)Cc1ccccc1 (stereo partly drawn) [Example 2, N-[3-[[1S,1R*-(cyclohexylmethyl)-2S*,3R*-dihydroxy-5-methylhexyl]amino]-2S*-methyl-2-3-oxopropyl]-α-[[(1,1-dimethylethyl)thio]methyl]benzenepropanamide]
inhibition at 0.01 µM (human renin; @ 10 nM): 30%
